Test results: patent US10968193B2, “Antidiabetic bicyclic compounds” (Merck Sharp & Dohme Corp., priority 2014, dated 2021)

Target: T1, human GPR40 (Homo sapiens, UniProt O14842)
T1 construct: expressed in transfected cells; host or cells: HEK cells stably expressing the aequorin reporter
Assay: Inositol Phosphate Turnover (IP1) Assay 2
Assay type: cell-based
Conditions: HEK cells stably expressing human GPR40; 15,000 cells per well; compound acoustically transferred; CisBio IP-One kit
Method: Human and mouse GPR40 stable cell-lines were generated in CHO cells stably expressing NFAT BLA (Beta-lactamase). A human GPR40 stable cell-line was generated in HEK cells stably expressing the aequorin expressing reporter. The expression plasmids were transfected using lipofectamine (Life Technologies) following manufacturer's instructions. Stable cell-lines were generated following drug selection.
Inositol Phosphate Turnover (IP1) Assay 2:
The assay was performed in 384-well format. HEK cells stably expressing human GPR40 were plated at 15,000 cells per well in growth medium (DMEM/10% fetal calf serum). Cell plates were then incubated 16 hours at 37 degrees in a 5% CO2 incubator.
Measurement of Inositol Phosphate Turnover (IP1) was performed using the CisBio IP-One kit (Part number 62IPAPEB). After the 16 hour incubation, the cells were washed with HEPES buffer and 10 ul of stimulation buffer (prepared as described in the kit) was added to each well. In a separate plate, compounds were diluted in DMSO (400-fold over the final concentration in the assay well) and 25 nl was acoustically transferred to the appropriate well in the assay cell plate. The plates were then incubated for 60 minutes at 37 degrees. 10 ul of detection buffer (also prepared as described in the IP-One kit) was added to each well and the plates were incubated for 60 minutes in the dark. The plates were then read in a Perkin Elmer EnVision or equivalent reader able to measure FRET. Fluorescent ratio of emission at 665 and 620 nm was then converted to IP1 concentration by back calculating from an IP1 standard curve prepared at the time of the assay.

T1 sequence (O14842 whole entry): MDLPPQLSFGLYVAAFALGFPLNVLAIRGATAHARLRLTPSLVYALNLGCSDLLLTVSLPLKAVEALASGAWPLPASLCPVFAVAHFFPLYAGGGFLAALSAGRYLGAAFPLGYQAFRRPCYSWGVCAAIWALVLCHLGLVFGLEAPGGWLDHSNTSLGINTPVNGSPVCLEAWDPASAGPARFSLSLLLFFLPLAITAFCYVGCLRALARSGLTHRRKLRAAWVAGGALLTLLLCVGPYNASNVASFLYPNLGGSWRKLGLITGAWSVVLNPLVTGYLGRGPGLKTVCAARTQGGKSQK

Row | SMILES | EC50 [nM]
1 | COc1cc(-c2ccc(C3CCc4ccc([C@H](C5CCC5)[C@H](C)C(=O)O)cc4O3)cc2CN(C)C)c(F)cn1 (single isomer, unassigned) [Example 94] | 1.8
2 | COc1cc(-c2ncc([C@H]3CCc4ccc([C@H](C5CC5)[C@H](C)C(=O)O)cc4O3)nc2CN2CCCC2)c(F)cn1 (single isomer, unassigned) [Example 110b] | 139
3 | COc1cc(-c2ccc(C3CCc4ccc([C@H](C5CC5)[C@H](C)C(=O)O)cc4O3)cc2CN2CC[C@H](O)C2)c(F)cn1 (stereo partly drawn) [Example 7] | 118
4 | COc1cc(-c2ccc(C3CCc4ccc([C@H](C5CC5)[C@H](C)C(=O)O)cc4O3)cc2CN2CC[C@@H](O)C2)c(F)cn1 (stereo partly drawn) [Example 8] | 238
5 | COc1cc(-c2ccc(C3CCc4ccc([C@H](C5CC5)[C@H](C)C(=O)O)cc4O3)cc2CN2CC[C@H](OC)C2)c(F)cn1 (stereo partly drawn) [Example 19] | 6.4
6 | COc1cc(-c2ccc(C3CCc4ccc([C@H](C5CC5)[C@H](C)C(=O)O)cc4O3)cc2CN(C)CC(F)(F)F)c(F)cn1 (stereo partly drawn) [Example 20] | 0.84
7 | COC[C@@H]1CCCN1Cc1cc(C2CCc3ccc([C@H](C4CC4)[C@H](C)C(=O)O)cc3O2)ccc1-c1cc(OC)ncc1F (stereo partly drawn) [Example 36] | 2.1
8 | COc1cc(-c2ccc(C3CCc4ccc([C@H](C5CC5)[C@H](C)C(=O)O)cc4O3)cc2CN2C3CCC2CC(OC)C3)c(F)cn1 (stereo partly drawn) [Example 37] | 4.7
9 | COC[C@H]1CCCN1Cc1cc(C2CCc3ccc([C@H](C4CC4)[C@H](C)C(=O)O)cc3O2)ccc1-c1cc(OC)ncc1F (stereo partly drawn) [Example 44] | 1.8
10 | COc1cc(-c2ccc(C3CCc4ccc([C@H](C5CC5)[C@H](C)C(=O)O)cc4O3)cc2CN2CCC[C@H]2C)c(F)cn1 (stereo partly drawn) [Example 50] | 1.3
11 | COc1cc(-c2ccc(C3CCc4ccc([C@H](C5CC5)[C@H](C)C(=O)O)cc4O3)cc2CN2CCOC[C@@H]2C)c(F)cn1 (stereo partly drawn) [Example 51] | 1
12 | COc1cc(-c2ccc(C3CCc4ccc([C@H](C5CC5)[C@H](C)C(=O)O)cc4O3)cc2CN2CCC2C)c(F)cn1 (stereo partly drawn) [Example 56] | 7
13 | COC[C@@H]1CC[C@@H](COC)N1Cc1cc(C2CCc3ccc([C@H](C4CC4)[C@H](C)C(=O)O)cc3O2)ccc1-c1cc(OC)ncc1F (stereo partly drawn) [Example 58] | 1.1
14 | COc1cc(-c2ccc(C3CCc4ccc([C@H](C5CC5)[C@H](C)C(=O)O)cc4O3)cc2CN2C3CCC2COC3)c(F)cn1 (stereo partly drawn) [Example 68] | 0.7
15 | COc1cc(-c2ccc(C3CCc4ccc([C@H](C5CC5)[C@H](C)C(=O)O)cc4O3)cc2CN2C3CCC2CC3)c(F)cn1 (stereo partly drawn) [Example 69] | 2.6
16 | CCOc1cc(-c2ccc(C3CCc4ccc([C@H](C5CC5)[C@H](C)C(=O)O)cc4O3)cc2CN2CCCC2)c(F)cn1 (stereo partly drawn) [Example 77] | 29
17 | COc1c[nH]nc1-c1ccc([C@@H]2CCc3ccc([C@H](C4CC4)[C@H](C)C(=O)O)cc3O2)cc1CN1CCCC1 [Example 79, Sodium (2S,3R)-3-cyclopropyl-3-((S)-2-(4-(4-methoxy-1H-pyrazol-3-yl)-3-(pyrrolidin-1-ylmethyl)phenyl)chroman-7-yl)-2-methylpropanoate] | 4840
18 | COc1cc(-c2ccc([C@H]3CCc4ccc([C@H](C5CC5)[C@H](C)C(=O)O)cc4O3)cc2[C@@H](C)N(C)C)c(F)cn1 [Example 81, (2S,3R)-3-cyclopropyl-3-((R)-2-(3-((R)-1-(dimethylamino)ethyl)-4-(5-fluoro-2-methoxypyridin-4-yl)phenyl)chroman-7-yl)-2-methylpropanoic acid] | 4
19 | COc1cc(-c2ccc([C@H]3CCc4ccc([C@H](C5CC5)[C@H](C)C(=O)O)cc4O3)cc2[C@H](C)N(C)C)c(F)cn1 [Example 82, (2S,3R)-3-cyclopropyl-3-((R)-2-(3-((S)-1-(dimethylamino)ethyl)-4-(5-fluoro-2-methoxypyridin-4-yl)phenyl)chroman-7-yl)-2-methylpropanoic acid] | 13
20 | COc1cc(-c2ccc(C3CCc4ccc([C@H](C5CC5)[C@H](C)C(=O)O)cc4O3)cc2C(C)N2CCCC2)c(F)cn1 (stereo partly drawn) [Example 84, Methyl (2S,3R)-3-cyclopropyl-3-(2-(4-(5-fluoro-2-methoxypyridin-4-yl)-3-(1-(pyrrolidin-1-yl)ethyl)phenyl)chroman-7-yl)-2-methylpropanoic acid] | 2

Other lines, results leading:

Row | EC50 [nM] | SMILES
21 | 1.8 | COc1cc(-c2ccc(C3CCc4ccc([C@H](C5CCC5)[C@H](C)C(=O)O)cc4O3)cc2CN(C)C)c(F)cn1 (single isomer, unassigned) [Example 95]
22 | 446 | COc1cc(-c2ncc([C@@H]3CCc4ccc([C@H](C5CC5)[C@H](C)C(=O)O)cc4O3)nc2CN2CCCC2)c(F)cn1 (single isomer, unassigned) [Example 110a]
23 | 660 | COc1cc(-c2ccc(C3CCc4ccc([C@H](C5CC5)[C@H](C)C(=O)O)cc4O3)cc2CN2CC[C@@H](S(C)(=O)=O)C2)c(F)cn1 (stereo partly drawn) [Example 5]
24 | 227 | COc1cc(-c2ccc(C3CCc4ccc([C@H](C5CC5)[C@H](C)C(=O)O)cc4O3)cc2CN2CC[C@H](S(C)(=O)=O)C2)c(F)cn1 (stereo partly drawn) [Example 6]
25 | 0.87 | COc1cc(-c2ccc(C3CCc4ccc([C@H](C5CC5)[C@H](C)C(=O)O)cc4O3)cc2CN2CCC(C(F)(F)F)C2)c(F)cn1 (stereo partly drawn) [Example 14]
26 | 1.1 | COc1cc(-c2ccc(C3CCc4ccc([C@H](C5CC5)[C@H](C)C(=O)O)cc4O3)cc2CN2CC[C@H](F)C2)c(F)cn1 (stereo partly drawn) [Example 15]
27 | 2.3 | COc1cc(-c2ccc(C3CCc4ccc([C@H](C5CC5)[C@H](C)C(=O)O)cc4O3)cc2CN2CC[C@@H](F)C2)c(F)cn1 (stereo partly drawn) [Example 16]
28 | 11 | COc1cc(-c2ccc(C3CCc4ccc([C@H](C5CC5)[C@H](C)C(=O)O)cc4O3)cc2CN2CC[C@@H](OC)C2)c(F)cn1 (stereo partly drawn) [Example 18]
29 | 1.9 | CNCc1cc([C@@H]2CCc3ccc([C@H](C4CC4)[C@H](C)C(=O)O)cc3O2)ccc1-c1cc(OC)ncc1F [Example 34, Sodium (2S,3R)-3-cyclopropyl-3-((S)-2-(4-(5-fluoro-2-methoxypyridin-4-yl)-3-((methylamino)methyl)phenyl)chroman-7-yl)-2-methylpropanoate]
30 | 1.8 | COc1cc(-c2ccc(C3CCc4ccc([C@H](C5CC5)[C@H](C)C(=O)O)cc4O3)cc2CN2CCC[C@@H]2C)c(F)cn1 (stereo partly drawn) [Example 38]
31 | 2.1 | COc1cc(-c2ccc(C3CCc4ccc([C@H](C5CC5)[C@H](C)C(=O)O)cc4O3)cc2CN2CCC3OCCC32)c(F)cn1 (stereo partly drawn) [Example 39]
32 | 13 | COc1cc(-c2ccc(C3CCc4ccc([C@H](C5CC5)[C@H](C)C(=O)O)cc4O3)cc2CN2CCC3(CCCO3)C2)c(F)cn1 (stereo partly drawn) [Example 41]
33 | 2.1 | COc1cc(-c2ccc(C3CCc4ccc([C@H](C5CC5)[C@H](C)C(=O)O)cc4O3)cc2CN2CC3CC2CO3)c(F)cn1 (stereo partly drawn) [Example 43]
34 | 3.6 | COc1cc(-c2ccc(C3CCc4ccc([C@H](C5CC5)[C@H](C)C(=O)O)cc4O3)cc2CN2CCCC(OC)C2)c(F)cn1 (stereo partly drawn) [Example 48]
35 | 13 | COc1cc(-c2ccc(C3CCc4ccc([C@H](C5CC5)[C@H](C)C(=O)O)cc4O3)cc2CN2CCC3(CCO3)C2)c(F)cn1 (stereo partly drawn) [Example 54]
36 | 0.59 | COc1cc(-c2ccc(C3CCc4ccc([C@H](C5CC5)[C@H](C)C(=O)O)cc4O3)cc2CN2[C@H](C)COC[C@H]2C)c(F)cn1 (stereo partly drawn) [Example 60]
37 | 2 | COC[C@H]1CC[C@H](COC)N1Cc1cc(C2CCc3ccc([C@H](C4CC4)[C@H](C)C(=O)O)cc3O2)ccc1-c1cc(OC)ncc1F (stereo partly drawn) [Example 65]
38 | 0.5 | COc1cc(-c2ccc(C3CCc4ccc([C@H](C5CC5)[C@H](C)C(=O)O)cc4O3)cc2CN2[C@H](C)CC[C@H]2C)c(F)cn1 (stereo partly drawn) [Example 70]
39 | 1.2 | COc1cc(-c2ccc(C3CCc4ccc([C@H](C5CC5)[C@H](C)C(=O)O)cc4O3)cc2CN2CCC2C(F)(F)F)c(F)cn1 (stereo partly drawn) [Example 72]
40 | 11 | COc1cc(-c2ccc([C@H]3CCc4ccc([C@H](C5CC5)[C@H](C)C(=O)O)cc4O3)cc2[C@H](C)N(C)C)c(F)cn1 [Example 80, (2S,3R)-3-cyclopropyl-3-((R)-2-(3-((S)-1-(dimethylamino)ethyl)-4-(5-fluoro-2-methoxypyridin-4-yl)phenyl)chroman-7-yl)-2-methylpropanoic acid]
41 | 3 | COc1cc(-c2ccc(C3CCc4ccc([C@H](C5CC5)[C@H](C)C(=O)O)cc4O3)cc2[C@@H](C)N(C)C)c(F)cn1 (stereo partly drawn) [Example 83, (2S,3R)-3-cyclopropyl-3-((R)-2-(3-((R)-1-(dimethylamino)ethyl)-4-(5-fluoro-2-methoxypyridin-4-yl)phenyl)chroman-7-yl)-2-methylpropanoic aid]
42 | 824 | COc1cc(-c2ncc(C3CCc4ccc([C@H](C5CC5)[C@H](C)C(=O)O)cc4O3)nc2CN2CCCC2)c(F)cn1 (stereo partly drawn) [Example 110, (2S,3R)-3-cyclopropyl-3-(2-(5-(5-fluoro-2-methoxypyridin-4-yl)-6-(pyrrolidin-1-ylmethyl)pyrazin-2-yl)chroman-7-yl)-2-methylpropanoic acid]
